Patent US11452717B2, “Small molecule activators of nicotinamide phosphoribosyltransferase (NAMPT) and uses thereof” (Sanford Burnham Prebys Medical Discovery Institute, priority 2017, dated 2022)
“And” between values parts separate entries of the source, which are not always exact repeats. Equal entries are not always repeated. Values belong to the compound of their own block, whether it stands above or below them.

Biological target: NAMPT enzyme (Homo sapiens (Human), UniProt P43490)
Assay: Enzyme Assay and NMN Detection (NAMPT reaction, fluorescence detection of NMN)
Format: biochemical
Settings: NAMPT activation, NMN formation
How it was run: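 NMN formed was read at ex380/em460 after acetophenone/KOH derivatization and formic acid addition, using a same-day calibration curve. Final conditions: NAMPT 16 nM, nicotinamide 5 uM, PRPP 6.25 uM, ATP 120 uM, pyrophosphatase 0.04 U/ml, pH 7.5 HEPES buffer with MgCl2 and TCEP, 2 h at room temperature.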

Sequence of NAMPT enzyme (P43490 whole entry, species assumed): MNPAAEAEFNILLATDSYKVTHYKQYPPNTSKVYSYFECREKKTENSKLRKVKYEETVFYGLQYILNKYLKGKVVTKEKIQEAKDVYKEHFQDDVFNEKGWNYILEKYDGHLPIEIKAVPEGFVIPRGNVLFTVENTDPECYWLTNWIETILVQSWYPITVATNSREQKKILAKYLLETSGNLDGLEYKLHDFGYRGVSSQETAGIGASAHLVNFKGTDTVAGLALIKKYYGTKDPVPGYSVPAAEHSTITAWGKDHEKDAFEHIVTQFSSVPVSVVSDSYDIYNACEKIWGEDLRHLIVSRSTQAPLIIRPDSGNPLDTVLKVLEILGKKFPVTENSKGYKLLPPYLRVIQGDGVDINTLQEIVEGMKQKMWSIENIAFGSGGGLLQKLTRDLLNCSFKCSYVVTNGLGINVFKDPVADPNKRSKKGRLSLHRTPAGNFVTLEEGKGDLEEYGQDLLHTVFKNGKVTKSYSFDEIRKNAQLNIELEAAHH

- EC50 (Table B-6): 100 to 2000 nM
SMILES: Cn1cc(S(=O)(=O)c2ccc(NC(=O)NCc3ccncc3)cc2)cn1 [1-[4-(1-Methyl-1H-pyrazole-4-sulfonyl)-phenyl]-3-pyridin-4-ylmethyl-urea]

- EC50 (Table B-4): 100 to 2000 nM
SMILES: Cn1nc(-c2ccc(NC(=O)NCc3cn[nH]c3)cc2)c2cccnc21 [1-[4-(1-Methyl-1H-pyrazolo[3,4-b]pyridin-3-yl)-phenyl]-3-(1H-pyrazol-4-ylmethyl)-urea]

- EC50 (Table B-5): 2000 to 5000 nM
SMILES: Cn1nc(-c2ccc(NC(=O)NCc3cnco3)cc2)c2cccnc21 [1-[4-(1-Methyl-1H-pyrazolo[3,4-b]pyridin-3-yl)-phenyl]-3-oxazol-5-ylmethyl-urea]

- EC50 (Table B-6): 5000 to 20000 nM
SMILES: Cn1nc(-c2ccc(NC(=O)NCc3ccncc3)cc2)c2cccnc21 [1-[4-(1-Methyl-1H-pyrazolo[3,4-b]pyridin-3-yl)-phenyl]-3-pyridin-4-ylmethyl-urea]

- EC50 (Table B-4): 100 to 2000 nM
SMILES: Cn1nc(-c2ccc(NC(=O)NCc3cn[nH]c3)cc2)c2ncccc21 [1-[4-(1-Methyl-1H-pyrazolo[4,3-b]pyridin-3-yl)-phenyl]-3-(1H-pyrazol-4-ylmethyl)-urea]

- EC50 (Table B-5): 2000 to 5000 nM
SMILES: Cn1nc(-c2ccc(NC(=O)NCc3cnco3)cc2)c2ncccc21 [1-[4-(1-Methyl-1H-pyrazolo[4,3-b]pyridin-3-yl)-phenyl]-3-oxazol-5-ylmethyl-urea]

- EC50 (Table B-6): 100 to 2000 nM
SMILES: Cn1nc(-c2ccc(NC(=O)NCc3ccncc3)cc2)c2ncccc21 [1-[4-(1-Methyl-1H-pyrazolo[4,3-b]pyridin-3-yl)-phenyl]-3-pyridin-4-ylmethyl-urea]

- EC50 (Table B-4): 2000 to 5000 nM
SMILES: Cn1nc(-c2ccc(NC(=O)NCc3cn[nH]c3)cc2)c2cnccc21 [1-[4-(1-Methyl-1H-pyrazolo[4,3-c]pyridin-3-yl)-phenyl]-3-(1H-pyrazol-4-ylmethyl)-urea]

- EC50 (Table B-5): 5000 to 20000 nM
SMILES: Cn1nc(-c2ccc(NC(=O)NCc3cnco3)cc2)c2cnccc21 [1-[4-(1-Methyl-1H-pyrazolo[4,3-c]pyridin-3-yl)-phenyl]-3-oxazol-5-ylmethyl-urea]

- EC50 (Table B-6): 5000 to 20000 nM
SMILES: Cn1nc(-c2ccc(NC(=O)NCc3ccncc3)cc2)c2cnccc21 [1-[4-(1-Methyl-1H-pyrazolo[4,3-c]pyridin-3-yl)-phenyl]-3-pyridin-4-ylmethyl-urea]

- EC50 (Table B-4): 2000 to 5000 nM
SMILES: CN1CCC(S(=O)(=O)c2ccc(NC(=O)NCc3cn[nH]c3)cc2)CC1 [1-[4-(1-Methyl-piperidine-4-sulfonyl)-phenyl]-3-(1H-pyrazol-4-ylmethyl)-urea]

- EC50 (Table B-5): 2000 to 5000 nM
SMILES: CN1CCC(S(=O)(=O)c2ccc(NC(=O)NCc3cnco3)cc2)CC1 [1-[4-(1-Methyl-piperidine-4-sulfonyl)-phenyl]-3-oxazol-5-ylmethyl-urea]

- EC50 (Table B-6): 2000 to 5000 nM
SMILES: CN1CCC(S(=O)(=O)c2ccc(NC(=O)NCc3ccncc3)cc2)CC1 [1-[4-(1-Methyl-piperidine-4-sulfonyl)-phenyl]-3-pyridin-4-ylmethyl-urea]

- EC50 (Table B-4): > 20000 nM
SMILES: O=C(NCc1cn[nH]c1)Nc1ccc(-c2cccc3[nH]cnc23)cc1 [1-[4-(1H-Benzoimidazol-4-yl)-phenyl]-3-(1H-pyrazol-4-ylmethyl)-urea]

- EC50 (Table B-5): > 20000 nM
SMILES: O=C(NCc1cnco1)Nc1ccc(-c2cccc3[nH]cnc23)cc1 [1-[4-(1H-Benzoimidazol-4-yl)-phenyl]-3-oxazol-5-ylmethyl-urea]

- EC50 (Table B-6): > 20000 nM
SMILES: O=C(NCc1ccncc1)Nc1ccc(-c2cccc3[nH]cnc23)cc1 [1-[4-(1H-Benzoimidazol-4-yl)-phenyl]-3-pyridin-4-ylmethyl-urea]

- EC50 (Table B-4): 100 to 2000 nM
SMILES: O=C(NCc1cn[nH]c1)Nc1ccc(-c2n[nH]c3ccccc23)cc1 [1-[4-(1H-Indazol-3-yl)-phenyl]-3-(1H-pyrazol-4-ylmethyl)-urea]

- EC50 (Table B-5): 100 to 2000 nM
SMILES: O=C(NCc1cnco1)Nc1ccc(-c2n[nH]c3ccccc23)cc1 [1-[4-(1H-Indazol-3-yl)-phenyl]-3-oxazol-5-ylmethyl-urea]

- EC50 (Table B-6): 100 to 2000 nM
SMILES: O=C(NCc1ccncc1)Nc1ccc(-c2n[nH]c3ccccc23)cc1 [1-[4-(1H-Indazol-3-yl)-phenyl]-3-pyridin-4-ylmethyl-urea]

- EC50 (Table B-4): 100 to 2000 nM
SMILES: O=C(NCc1cn[nH]c1)Nc1ccc(S(=O)(=O)c2ccc(Cl)cc2Cl)cc1 [1-[4-(2,4-Dichloro-benzenesulfonyl)-phenyl]-3-(1H-pyrazol-4-ylmethyl)-urea]

- EC50 (Table B-6): 100 to 2000 nM
SMILES: O=C(NCc1ccncc1)Nc1ccc(S(=O)(=O)c2ccc(Cl)cc2Cl)cc1 [1-[4-(2,4-Dichloro-benzenesulfonyl)-phenyl]-3-pyridin-4-ylmethyl-urea]

- EC50 (Table B-4): < 100 nM
SMILES: O=C(NCc1cn[nH]c1)Nc1ccc(S(=O)(=O)c2ccc(F)cc2F)cc1 [1-[4-(2,4-Difluoro-benzenesulfonyl)-phenyl]-3-(1H-pyrazol-4-ylmethyl)-urea]

- EC50 (Table B-5): 100 to 2000 nM
SMILES: O=C(NCc1cnco1)Nc1ccc(S(=O)(=O)c2ccc(F)cc2F)cc1 [1-[4-(2,4-Difluoro-benzenesulfonyl)-phenyl]-3-oxazol-5-ylmethyl-urea]

- EC50 (Table B-6): 100 to 2000 nM
SMILES: O=C(NCc1ccncc1)Nc1ccc(S(=O)(=O)c2ccc(F)cc2F)cc1 [1-[4-(2,4-Difluoro-benzenesulfonyl)-phenyl]-3-pyridin-4-ylmethyl-urea]

- EC50 (Table B-1): < 100 nM
SMILES: O=C(NCc1cn[nH]c1)Nc1ccc(S(=O)(=O)c2ccccc2Cl)cc1 [1-[4-(2-Chloro-benzenesulfonyl)-phenyl]-3-(1H-pyrazol-4-ylmethyl)-urea]

- EC50 (Table B-5): 100 to 2000 nM
SMILES: O=C(NCc1cnco1)Nc1ccc(S(=O)(=O)c2ccccc2Cl)cc1 [1-[4-(2-Chloro-benzenesulfonyl)-phenyl]-3-oxazol-5-ylmethyl-urea]

- EC50 (Table B-1): < 100 nM
SMILES: COc1ccccc1S(=O)(=O)c1ccc(NC(=O)NCc2cn[nH]c2)cc1 [1-[4-(2-Methoxy-benzenesulfonyl)-phenyl]-3-(1H-pyrazol-4-ylmethyl)-urea]

- EC50 (Table B-2): < 100 nM
SMILES: COc1ccccc1S(=O)(=O)c1ccc(NC(=O)NCc2ccncc2)cc1 [1-[4-(2-Methoxy-benzenesulfonyl)-phenyl]-3-pyridin-4-ylmethyl-urea]

- EC50 (Table B-6): 100 to 2000 nM
SMILES: O=C(NCc1ccncc1)Nc1ccc(S(=O)(=O)c2ccccc2-c2cccnc2)cc1 [1-[4-(2-Pyridin-3-yl-benzenesulfonyl)-phenyl]-3-pyridin-4-ylmethyl-urea]

- EC50 (Table B-6): 100 to 2000 nM
SMILES: O=C(NCc1ccncc1)Nc1ccc(S(=O)(=O)c2ccccc2-c2ccncc2)cc1 [1-[4-(2-Pyridin-4-yl-benzenesulfonyl)-phenyl]-3-pyridin-4-ylmethyl-urea]

- EC50 (Table B-4): < 100 nM
SMILES: O=C(NCc1cn[nH]c1)Nc1ccc(S(=O)(=O)c2ccccc2-c2ccccc2F)cc1 [1-[4-(2′-Fluoro-biphenyl-2-sulfonyl)-phenyl]-3-(1H-pyrazol-4-ylmethyl)-urea]

- EC50 (Table B-6): < 100 nM
SMILES: O=C(NCc1ccncc1)Nc1ccc(S(=O)(=O)c2ccccc2-c2ccccc2F)cc1 [1-[4-(2′-Fluoro-biphenyl-2-sulfonyl)-phenyl]-3-pyridin-4-ylmethyl-urea]

- EC50 (Table B-4): 5000 to 20000 nM
SMILES: COc1ccccc1-c1ccccc1S(=O)(=O)c1ccc(NC(=O)NCc2cn[nH]c2)cc1 [1-[4-(2′-Methoxy-biphenyl-2-sulfonyl)-phenyl]-3-(1H-pyrazol-4-ylmethyl)-urea]

- EC50 (Table B-6): 5000 to 20000 nM
SMILES: COc1ccccc1-c1ccccc1S(=O)(=O)c1ccc(NC(=O)NCc2ccncc2)cc1 [1-[4-(2′-Methoxy-biphenyl-2-sulfonyl)-phenyl]-3-pyridin-4-ylmethyl-urea]

- EC50 (Table B-4): 5000 to 20000 nM
SMILES: O=C(NCc1cn[nH]c1)Nc1ccc(S(=O)(=O)c2ccc(Cl)c(Cl)c2)cc1 [1-[4-(3,4-Dichloro-benzenesulfonyl)-phenyl]-3-(1H-pyrazol-4-ylmethyl)-urea]

- EC50 (Table B-5): 100 to 2000 nM and 2000 to 5000 nM
SMILES: O=C(NCc1cnco1)Nc1ccc(S(=O)(=O)c2ccc(Cl)c(Cl)c2)cc1 [1-[4-(3,4-Dichloro-benzenesulfonyl)-phenyl]-3-oxazol-5-ylmethyl-urea]

- EC50 (Table B-6): 100 to 2000 nM
SMILES: O=C(NCc1ccncc1)Nc1ccc(S(=O)(=O)c2ccc(Cl)c(Cl)c2)cc1 [1-[4-(3,4-Dichloro-benzenesulfonyl)-phenyl]-3-pyridin-4-ylmethyl-urea]

- EC50 (Table B-4): 100 to 2000 nM
SMILES: O=C(NCc1cn[nH]c1)Nc1ccc(S(=O)(=O)c2ccc(F)c(F)c2)cc1 [1-[4-(3,4-Difluoro-benzenesulfonyl)-phenyl]-3-(1H-pyrazol-4-ylmethyl)-urea]

- EC50 (Table B-5): 100 to 2000 nM
SMILES: O=C(NCc1cnco1)Nc1ccc(S(=O)(=O)c2ccc(F)c(F)c2)cc1 [1-[4-(3,4-Difluoro-benzenesulfonyl)-phenyl]-3-oxazol-5-ylmethyl-urea]

- EC50 (Table B-6): < 100 nM
SMILES: O=C(NCc1ccncc1)Nc1ccc(S(=O)(=O)c2ccc(F)c(F)c2)cc1 [1-[4-(3,4-Difluoro-benzenesulfonyl)-phenyl]-3-pyridin-4-ylmethyl-urea]

- EC50 (Table B-1): < 100 nM
SMILES: O=C(NCc1cn[nH]c1)Nc1ccc(S(=O)(=O)N2CCc3ccccc3C2)cc1 [1-[4-(3,4-Dihydro-1H-isoquinoline-2-sulfonyl)-phenyl]-3-(1H-pyrazol-4-ylmethyl)-urea]

- EC50 (Table B-1): > 20000 nM
SMILES: Cc1noc(C)c1CNC(=O)Nc1ccc(S(=O)(=O)N2CCc3ccccc3C2)cc1 [1-[4-(3,4-Dihydro-1H-isoquinoline-2-sulfonyl)-phenyl]-3-(3,5-dimethyl-isoxazol-4-ylmethyl)-urea]

- EC50 (Table B-1): 100 to 2000 nM
SMILES: O=C(NCc1cnco1)Nc1ccc(S(=O)(=O)N2CCc3ccccc3C2)cc1 [1-[4-(3,4-Dihydro-1H-isoquinoline-2-sulfonyl)-phenyl]-3-oxazol-5-ylmethyl-urea]

- EC50 (Table B-2): 100 to 2000 nM
SMILES: O=C(NCc1ccncc1)Nc1ccc(S(=O)(=O)N2CCc3ccccc3C2)cc1 [1-[4-(3,4-Dihydro-1H-isoquinoline-2-sulfonyl)-phenyl]-3-pyridin-4-ylmethyl-urea]

- EC50 (Table B-1): 100 to 2000 nM
SMILES: O=C(NCc1cncs1)Nc1ccc(S(=O)(=O)N2CCc3ccccc3C2)cc1 [1-[4-(3,4-Dihydro-1H-isoquinoline-2-sulfonyl)-phenyl]-3-thiazol-5-ylmethyl-urea]

- EC50 (Table B-4): < 100 nM
SMILES: O=C(NCc1cn[nH]c1)Nc1ccc(S(=O)(=O)c2cc(F)cc(F)c2)cc1 [1-[4-(3,5-Difluoro-benzenesulfonyl)-phenyl]-3-(1H-pyrazol-4-ylmethyl)-urea]
